Experimental data: paper PMC6804459 (Acta Pharmaceutica Sinica. B, 2019)

Biological target: recombinant human PrP (rhPrP, PrP^C) (Homo sapiens, UniProt P04156)
Test: biochemical
Assay type: binding

## Cc1cc(Nc2ccc(NC(=O)c3ccc(Nc4ccnc5ccccc45)cc3)cc2)nc(N)n1 [SGI-1027]
  Kd: 1610 nM
